Legend:
Test in all cases: relative viability (nuclei count vs DMSO), 5 days (fraction); higher = more cells survive
A-427 = tested on: A-427
Summary of the method: (§1)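 Lung cancer cell lines were pin-tool dosed in 1536-well plates on the day after seeding, with either a lone drug or a fixed anchor-drug dose plus five library-drug doses (not always all listed) in √10 steps. Nuclei were counted on 4× images after 5 days. Relative viability is the ratio of treated-well to vehicle-well nuclei counts, with each value a median of duplicate plates.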

ABC-1 = tested on: ABC-1
Summary of the method: as §1

EMC-BAC-2 = tested on: EMC-BAC-2
Summary of the method: as §1

HARA = tested on: HARA
Summary of the method: as §1

HOP-62 = tested on: HOP-62
Summary of the method: as §1

LK-2 = tested on: LK-2
Summary of the method: as §1

LXF-289 = tested on: LXF-289
Summary of the method: as §1

NCI-H1792 = tested on: NCI-H1792
Summary of the method: as §1

NCI-H1944 = tested on: NCI-H1944
Summary of the method: as §1

NCI-H1993 = tested on: NCI-H1993
Summary of the method: as §1

NCI-H2009 = tested on: NCI-H2009
Summary of the method: as §1

NCI-H2170 = tested on: NCI-H2170
Summary of the method: as §1

NCI-H3122 = tested on: NCI-H3122
Summary of the method: as §1

NCI-H322M = tested on: NCI-H322M
Summary of the method: as §1

NCI-H522 = tested on: NCI-H522
Summary of the method: as §1

NCI-H596 = tested on: NCI-H596
Summary of the method: as §1

NCI-H727 = tested on: NCI-H727
Summary of the method: as §1

PC-3 [JPC-3] = tested on: PC-3 [JPC-3]
Summary of the method: as §1

SK-MES-1 = tested on: SK-MES-1
Summary of the method: as §1

SW 1573 = tested on: SW 1573
Summary of the method: as §1

SW 900 = tested on: SW 900
Summary of the method: as §1

## O=c1cc(-c2cccc3c2Sc2ccccc2S3)oc(N2CCOCC2)c1 + Nc1ncn([C@H]2C[C@H](O)[C@@H](CO)O2)c(=O)n1 [Decitabine] (partner 2 µM)
A-427; first compound 0.08 µM
  relative viability: 0.448
A-427; first compound 0.253 µM
  relative viability: 0.6
A-427; first compound 0.8 µM
  relative viability: 0.547
A-427; first compound 2.53 µM
  relative viability: 0.573
A-427; first compound 8 µM
  relative viability: 0.548
ABC-1; first compound 0.08 µM
  relative viability: 0.993
ABC-1; first compound 0.253 µM
  relative viability: 1.16
ABC-1; first compound 0.8 µM
  relative viability: 1.33
ABC-1; first compound 2.53 µM
  relative viability: 1.17
ABC-1; first compound 8 µM
  relative viability: 1.19
EMC-BAC-2; first compound 0.08 µM
  relative viability: 0.91
EMC-BAC-2; first compound 0.253 µM
  relative viability: 1.1
EMC-BAC-2; first compound 0.8 µM
  relative viability: 1.01
EMC-BAC-2; first compound 2.53 µM
  relative viability: 1.04
EMC-BAC-2; first compound 8 µM
  relative viability: 1.12
HARA; first compound 0.08 µM
  relative viability: 0.634
HARA; first compound 0.253 µM
  relative viability: 0.52
HARA; first compound 0.8 µM
  relative viability: 0.483
HARA; first compound 2.53 µM
  relative viability: 0.555
HARA; first compound 8 µM
  relative viability: 0.49
HOP-62; first compound 0.08 µM
  relative viability: 0.206
HOP-62; first compound 0.253 µM
  relative viability: 0.221
HOP-62; first compound 0.8 µM
  relative viability: 0.187
HOP-62; first compound 2.53 µM
  relative viability: 0.228
HOP-62; first compound 8 µM
  relative viability: 0.234
LK-2; first compound 0.08 µM
  relative viability: 0.245
LK-2; first compound 0.253 µM
  relative viability: 0.341
LK-2; first compound 0.8 µM
  relative viability: 0.244
LK-2; first compound 2.53 µM
  relative viability: 0.255
LK-2; first compound 8 µM
  relative viability: 0.335
LXF-289; first compound 0.08 µM
  relative viability: 0.389
LXF-289; first compound 0.253 µM
  relative viability: 0.465
LXF-289; first compound 0.8 µM
  relative viability: 0.42
LXF-289; first compound 2.53 µM
  relative viability: 0.439
LXF-289; first compound 8 µM
  relative viability: 0.416
NCI-H1792; first compound 0.08 µM
  relative viability: 0.531
NCI-H1792; first compound 0.253 µM
  relative viability: 0.828
NCI-H1792; first compound 0.8 µM
  relative viability: 0.45
NCI-H1792; first compound 2.53 µM
  relative viability: 0.723
NCI-H1792; first compound 8 µM
  relative viability: 0.575
NCI-H1944; first compound 0.08 µM
  relative viability: 0.406
NCI-H1944; first compound 0.253 µM
  relative viability: 0.448
NCI-H1944; first compound 0.8 µM
  relative viability: 0.457
NCI-H1944; first compound 2.53 µM
  relative viability: 0.432
NCI-H1944; first compound 8 µM
  relative viability: 0.468
NCI-H1993; first compound 0.08 µM
  relative viability: 0.593
NCI-H1993; first compound 0.253 µM
  relative viability: 0.61
NCI-H1993; first compound 0.8 µM
  relative viability: 0.467
NCI-H1993; first compound 2.53 µM
  relative viability: 0.586
NCI-H1993; first compound 8 µM
  relative viability: 0.577
NCI-H2009; first compound 0.08 µM
  relative viability: 0.375
NCI-H2009; first compound 0.253 µM
  relative viability: 0.358
NCI-H2009; first compound 0.8 µM
  relative viability: 0.38
NCI-H2009; first compound 2.53 µM
  relative viability: 0.348
NCI-H2009; first compound 8 µM
  relative viability: 0.343
NCI-H2170; first compound 0.08 µM
  relative viability: 0.439
NCI-H2170; first compound 0.253 µM
  relative viability: 0.524
NCI-H2170; first compound 0.8 µM
  relative viability: 0.48
NCI-H2170; first compound 2.53 µM
  relative viability: 0.424
NCI-H2170; first compound 8 µM
  relative viability: 0.465
NCI-H3122; first compound 0.08 µM
  relative viability: 0.36
NCI-H3122; first compound 0.253 µM
  relative viability: 0.551
NCI-H3122; first compound 0.8 µM
  relative viability: 0.45
NCI-H3122; first compound 2.53 µM
  relative viability: 0.38
NCI-H3122; first compound 8 µM
  relative viability: 0.534
NCI-H322M; first compound 0.08 µM
  relative viability: 0.661
NCI-H322M; first compound 0.253 µM
  relative viability: 0.73
NCI-H322M; first compound 0.8 µM
  relative viability: 0.742
NCI-H322M; first compound 2.53 µM
  relative viability: 0.634
NCI-H322M; first compound 8 µM
  relative viability: 0.749
NCI-H522; first compound 0.08 µM
  relative viability: 0.693
NCI-H522; first compound 0.253 µM
  relative viability: 0.743
NCI-H522; first compound 0.8 µM
  relative viability: 0.689
NCI-H522; first compound 2.53 µM
  relative viability: 0.66
NCI-H522; first compound 8 µM
  relative viability: 0.796
NCI-H596; first compound 0.08 µM
  relative viability: 0.833
NCI-H596; first compound 0.253 µM
  relative viability: 0.951
NCI-H596; first compound 0.8 µM
  relative viability: 0.989
NCI-H596; first compound 2.53 µM
  relative viability: 0.997
NCI-H596; first compound 8 µM
  relative viability: 0.996
NCI-H727; first compound 0.08 µM
  relative viability: 0.704
NCI-H727; first compound 0.253 µM
  relative viability: 1.05
NCI-H727; first compound 2.53 µM
  relative viability: 0.773
NCI-H727; first compound 8 µM
  relative viability: 0.895
PC-3 [JPC-3]; first compound 0.08 µM
  relative viability: 0.733
PC-3 [JPC-3]; first compound 0.253 µM
  relative viability: 0.791
PC-3 [JPC-3]; first compound 0.8 µM
  relative viability: 0.838
PC-3 [JPC-3]; first compound 2.53 µM
  relative viability: 0.79
PC-3 [JPC-3]; first compound 8 µM
  relative viability: 0.884
SK-MES-1; first compound 0.08 µM
  relative viability: 0.337
SK-MES-1; first compound 0.253 µM
  relative viability: 0.406
SK-MES-1; first compound 0.8 µM
  relative viability: 0.352
SK-MES-1; first compound 2.53 µM
  relative viability: 0.458
SK-MES-1; first compound 8 µM
  relative viability: 0.375
SW 1573; first compound 0.08 µM
  relative viability: 0.561
SW 1573; first compound 0.253 µM
  relative viability: 0.575
SW 1573; first compound 0.8 µM
  relative viability: 0.598
SW 1573; first compound 2.53 µM
  relative viability: 0.448
SW 1573; first compound 8 µM
  relative viability: 0.596
SW 900; first compound 0.253 µM
  relative viability: 0.453
SW 900; first compound 0.8 µM
  relative viability: 0.414
SW 900; first compound 2.53 µM
  relative viability: 0.428
SW 900; first compound 8 µM
  relative viability: 0.433
